Laboratory results: PMC12091851, “Replacing a Cereblon Ligand by a DDB1 and CUL4 Associated Factor 11 (DCAF11) Recruiter Converts a Selective Histone Deacetylase 6 PROTAC into a Pan‐Degrader” (Chemmedchem, 2025)

How the values were obtained:
Experiment in all cases: HDAC enzyme inhibition assay
Format in all cases: biochemical
HDAC4 = HDAC4 (Homo sapiens, UniProt P56524); parameters: purchased BPS Bioscience 50004
Procedure: (§1) Bio-Rad) to Immobilon-FL PVDF membranes (Catalog# IPFL00005, Mill ipore Merck, Burlington, MA, USA) at 1.0 A for 30 min and treated with 5% milk-powder solution for 1 h at room temperature […]
(§2) Signaling Technology) antibody solutions in 1:1000 –1:8000 dilutions at 4 °C overnight. […]
Significance testing was performed with a one -way analysis […]
compared to a reference mean value.
(§3) 2.7. HDAC Enzyme Inhibition Assay […]
In vitro inhibitory activities against HDAC4 were measured using a previously published protocol with slight modifications. For test compounds and controls, serial dilutions of the respective DMSO stock solution in DMSO were prepared, and 1.0 μL /well of this serial dilution were transferred […]
(§4) into OptiPlate-96 black microplates (PerkinElmer, Waltham, […], USA). A volume of 4 µL/well assay […]
(§5) BSA) was added. In the case of HDAC1, 2, and 6, a volume of 35 μL/well of the fluorogenic substrate […]
(§6) The total assay volume of 50 μL (max. 2 % DMSO) was incubated at 37 °C for 90 min. Subsequently, 50 μL /well of trypsin (0.4 mg/mL) in trypsin buffer (50 mM Tris−HCl, pH 8.0, 100 mM NaCl) was added, followed by additional 30 min of incubation at […]
(§7) OPTIMA microplate reader (BMG labtech, Ortenburg, Germany). The half maximal inhibitory concentration (IC50) was determined by plotting dose response curves and nonlinear regression with GraphPad Prism (GraphPad Software).
2.8. […]

HDAC6 = target: T1, HDAC6 (Homo sapiens, UniProt Q9UBN7); parameters: purchased BPS Bioscience 50006
T1 sequence (Q9UBN7 1-1215): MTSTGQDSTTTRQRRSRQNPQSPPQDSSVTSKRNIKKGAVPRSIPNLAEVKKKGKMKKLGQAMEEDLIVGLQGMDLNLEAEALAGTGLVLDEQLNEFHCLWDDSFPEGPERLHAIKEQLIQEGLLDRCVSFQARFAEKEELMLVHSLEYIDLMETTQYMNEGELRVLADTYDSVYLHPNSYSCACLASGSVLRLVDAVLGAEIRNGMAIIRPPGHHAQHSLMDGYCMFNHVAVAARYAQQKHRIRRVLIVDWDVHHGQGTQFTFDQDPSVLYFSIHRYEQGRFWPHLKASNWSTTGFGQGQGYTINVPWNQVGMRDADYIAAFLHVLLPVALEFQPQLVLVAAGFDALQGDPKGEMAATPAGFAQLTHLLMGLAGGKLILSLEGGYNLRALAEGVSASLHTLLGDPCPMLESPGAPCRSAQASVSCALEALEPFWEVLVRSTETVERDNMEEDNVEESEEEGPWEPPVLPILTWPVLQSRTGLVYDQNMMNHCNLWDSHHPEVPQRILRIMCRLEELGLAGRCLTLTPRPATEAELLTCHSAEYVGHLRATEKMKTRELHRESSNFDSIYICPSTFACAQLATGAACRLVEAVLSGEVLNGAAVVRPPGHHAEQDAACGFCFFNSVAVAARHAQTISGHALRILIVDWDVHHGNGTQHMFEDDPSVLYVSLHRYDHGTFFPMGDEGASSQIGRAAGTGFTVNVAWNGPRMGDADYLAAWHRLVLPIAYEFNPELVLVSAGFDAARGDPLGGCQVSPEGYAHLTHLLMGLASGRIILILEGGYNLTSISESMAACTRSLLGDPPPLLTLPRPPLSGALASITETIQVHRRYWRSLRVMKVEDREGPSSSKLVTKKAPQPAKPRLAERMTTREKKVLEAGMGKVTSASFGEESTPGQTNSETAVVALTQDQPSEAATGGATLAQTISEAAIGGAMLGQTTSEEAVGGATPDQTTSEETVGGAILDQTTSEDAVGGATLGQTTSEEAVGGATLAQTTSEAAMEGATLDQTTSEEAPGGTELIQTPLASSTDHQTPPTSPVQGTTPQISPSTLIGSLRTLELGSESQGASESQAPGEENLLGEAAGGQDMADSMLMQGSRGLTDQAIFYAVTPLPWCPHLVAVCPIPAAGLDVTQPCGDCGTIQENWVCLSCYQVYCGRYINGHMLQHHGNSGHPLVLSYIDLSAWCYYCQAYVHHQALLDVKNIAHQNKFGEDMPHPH
Procedure: as §1, §2
(§8) Significance testing was performed with a one -way analysis of variance (ANOVA). Dunnett’s post -hoc test was employed to obtain significance levels of each mean compared to a reference mean value.
as §3
(§9) [4] For test compounds and controls, serial dilutions of the respective DMSO stock solution in DMSO were prepared, and 1.0 μL /well of this serial dilution were transferred […]
as §4, §5, §6, §7
(§10) 2.8. MTT Cell Viability Assay […]

HDAC1 = HDAC1 (Homo sapiens, UniProt Q13547); parameters: purchased BPS Bioscience 50051
Chain of HDAC1 (Q13547 whole entry): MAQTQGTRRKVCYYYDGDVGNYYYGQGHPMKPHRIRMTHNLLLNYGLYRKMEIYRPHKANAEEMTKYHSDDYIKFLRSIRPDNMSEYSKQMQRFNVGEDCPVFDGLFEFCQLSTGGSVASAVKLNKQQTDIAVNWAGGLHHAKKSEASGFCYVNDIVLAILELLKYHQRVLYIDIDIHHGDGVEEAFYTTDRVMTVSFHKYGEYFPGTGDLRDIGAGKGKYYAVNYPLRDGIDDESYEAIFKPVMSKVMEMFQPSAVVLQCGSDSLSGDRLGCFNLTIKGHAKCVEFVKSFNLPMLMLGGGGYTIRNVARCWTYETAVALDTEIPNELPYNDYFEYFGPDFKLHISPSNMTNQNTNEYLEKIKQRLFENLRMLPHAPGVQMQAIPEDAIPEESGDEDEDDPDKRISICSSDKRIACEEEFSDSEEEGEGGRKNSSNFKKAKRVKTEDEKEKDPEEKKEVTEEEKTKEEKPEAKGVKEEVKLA
Procedure: as §1, §2, §8, §3, §9, §4, §5, §6, §7, §10

Chain of HDAC4 (P56524 627-1084 limits assumed): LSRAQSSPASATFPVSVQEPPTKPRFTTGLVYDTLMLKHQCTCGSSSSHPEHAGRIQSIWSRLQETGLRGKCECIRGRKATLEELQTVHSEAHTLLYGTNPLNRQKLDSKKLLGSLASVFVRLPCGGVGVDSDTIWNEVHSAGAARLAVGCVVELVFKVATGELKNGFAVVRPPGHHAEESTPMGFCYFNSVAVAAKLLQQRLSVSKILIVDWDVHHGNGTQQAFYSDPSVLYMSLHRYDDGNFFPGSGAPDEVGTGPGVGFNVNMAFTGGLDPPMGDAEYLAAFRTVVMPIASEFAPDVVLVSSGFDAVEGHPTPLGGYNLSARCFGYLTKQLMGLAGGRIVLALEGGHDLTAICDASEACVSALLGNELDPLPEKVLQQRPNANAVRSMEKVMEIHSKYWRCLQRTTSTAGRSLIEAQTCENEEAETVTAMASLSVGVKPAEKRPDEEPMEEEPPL

| SMILES | IC50 (HDAC4) [nM] | IC50 (HDAC6) [nM] | IC50 (HDAC1) [nM] |
| --- | --- | --- | --- |
| O=C(CCCCCCNC(=O)c1ccc(NC(=O)CCCCCCCCCCCN(C(=O)CCl)C(C(=O)NCc2ccccc2)c2ccc(Cl)c(Cl)c2)cc1)NO (stereo not drawn) [Compound 1j] | 12400 ± 1500 | 53 ± 1 | 1030 ± 40 |
| O=C(CCCCCCNC(=O)c1ccc(N(C(=O)CCl)C(C(=O)NCc2ccccc2)c2ccc(Cl)c(Cl)c2)cc1)NO (stereo not drawn) [Compound 2] | 3260 ± 80 | 7 ± 1 | 159 ± 44 |
